Calls of active or inactive are those of the source. No cut-off for these calls is given here.

One may read the IC50 as the point on the concentration scale where inhibition reaches its midpoint. A higher IC50 goes with a need for much substance.

Series [1] relates to LoVo. Nature of the series: Induction of apoptosis in human LoVo cells assessed as late apoptotic cells at 15 uM after 24 hrs by APC-Annexin-V/propidium iodide staining based flow cytometric method relative to control. It is filed as functional.
A short description of series [2]: Resistance index, ratio of IC50 for human LoVo/DX cells to IC50 for human LoVo cells. In kind it is functional.
A short description of series [3]: Cytotoxicity against human LoVo/DX cells assessed as cell death at >15 uM after 24 hrs. It is filed as cell-based.
The next series has as its system A549. Nature of the series: Cytotoxicity against human A549 cells after 72 hrs by sulforhodamine B assay. In kind it is functional, cell-based. The following applies: A549, 72 h.
Series [4] is described as follows: Induction of apoptosis in human LoVo/DX cells assessed as late apoptotic cells at 15 uM after 24 hrs by APC-Annexin-V/propidium iodide staining based flow cytometric method relative to control. In kind it is functional. For orientation: In flow cytometry, cells or beads pass a laser one at a time.
Series [5] deals with Mus musculus. Nature of the series: Toxicity in BALB/c mdb mouse implanted with mouse 4T1 cells assessed as spleen weight at 100 umol/kg, ip administered five times weekly measured at 29 day post cell innoculum (reference value: 0.603 +/- 0.133 g). It is filed as organism-based. The following applies: in vivo, 696 h.
The next series concerns 4T1. In words: Anti-tumor activity against mouse 4T1 cells implanted in BALB/c mdb mouse assessed as lung metastasis at 100 umol/kg, ip administered five times weekly measured at 29 days post cell innoculum (reference value: 56 +/- 25). In kind it is functional.
Series [6] relates to LoVo. Nature of the series: Cell cycle arrest in human LoVo cells assessed as accumulation at G2/M phase at 15 uM after 24 hrs by propidium iodide staining based flow cytometric method. It is filed as functional.
The next series relates to HL-60. Nature of the series: Cytotoxicity against human HL60 cells after 72 hrs by sulforhodamine B assay. In kind it is functional, cell-based. As to conditions: HL-60, 72 h. Background: Sulforhodamine B stains cellular protein and so reports cell mass.
In series [7] the test system is LoVo. In words: Potency index, ratio of sulforaphane IC50 to compound IC50 for human LoVo cells. In kind it is functional.
Series [8] has as its system Mus musculus. In words: Toxicity in BALB/c mdb mouse implanted with mouse 4T1 cells assessed as body weight loss at 100 umol/kg, ip administered five times weekly measured 3 times weekly during compound dosing. It is filed as organism-based. The following applies: in vivo.

As for `O=P(CCCCCCN=C=S)(Oc1ccccc1)Oc1ccccc1`, the Activity with LoVo [1] is given as 54.6%; in [3], “Toxic”; in series [4] it was 59.7%; with Mus musculus [5] it was 0.632 g; with 4T1 it was 46; in the series with Mus musculus [8] it was “<= 10%”. For the same molecule, the results for the “Ratio IC50” value (in [2]; in the series with LoVo [7]) were 4 and 10, respectively. In addition, the IC50 in the series on A549 was 11.1 µM; in the series on HL-60 it was 0.8 µM. The result in the series with LoVo [6] was Active.

Values taken from ChEMBL document CHEMBL4028815, “Novel phosphonate analogs of sulforaphane: Synthesis, in vitro and in vivo anticancer activity” (Eur J Med Chem, 2017).
